Patent US20250186463A1, “ABIRATERONE DECANOATE PRODRUGS AND USE IN THERAPY” (PROPELLA THERAPEUTICS, INC., priority 2022, published 2025)

System: serum testosterone
Test: Phase 1/2a open-label study of i.m. abiraterone decanoate depot in advanced prostate cancer: serum testosterone
Format: in vivo, human
Settings: for serum testosterone reduction from baseline: day 168
Protocol: This is a Phase 1/2a, Open-label, Multicenter Study of Intramuscular Abiraterone Decanoate Depot in Patients with Advanced Prostate Cancer.
Formulations and dosing regimen: The formulation used in the study (abiraterone decanoate for intramuscular [i.m.] injection) is a solution formulation of abiraterone decanoate at a concentration of 180 mg/mL and will be provided as a 10 mL vial containing 990 mg of abiraterone decanoate in 5.5 mL of solution. See further details of the formulations in Example 2 (for each milliliter: Abiraterone Decanoate, about 180 mg/mL; Benzyl Alcohol, about 100 mg/mL; Benzyl Benzoate, about 200 mg/mL; and Corn oil, q.s. to 1 mL). Abiraterone Decanoate will be administered as an i.m. injection every 84 days (±3 days). Dose escalation will proceed with a modified Fibonacci sequence. Based on emerging data, intermediate doses may be evaluated.
Study Design: This is a Phase 1/2a, Open-label, Multicenter Study of Intramuscular Abiraterone Decanoate Depot in Patients with Advanced Prostate Cancer. In Phase 1, all patients will receive i.m. Abiraterone Decanoate depot in 84-day treatment cycles combined with daily oral prednisone or dexamethasone. In Phase 2a, patients will be randomized 1:1 and treated with i.m. Abiraterone Decanoate depot in 84-day treatment cycles in combination with dexamethasone (Arm A) or abiraterone acetate daily+prednisone (Arm B). In both Phases, patients will undergo scheduled periodic assessments of serum testosterone levels. Participants may continue treatment until they meet any discontinuation criteria outlined in the protocol.
Phase 1—Dose Escalation: Eligible patients with metastatic castration-sensitive prostate cancer (mCSPC) and patients with metastatic castration-resistant prostate cancer (mCRPC) will be enrolled. The initial dose of Abiraterone Decanoate to be administered is based on findings from completed non-human primate toxicology and pharmacology studies; dose escalation will proceed in a modified Fibonacci sequence. A Safety Review Committee (SRC) will be established to review available cohort safety data, and pharmacokinetic and pharmacodynamic findings (particularly testosterone suppression) to recommend a decision on dose escalation including whether intermediate doses should be explored.
Pharmacodynamic Analysis: Determination of Prostate Specific Antigen (PSA), serum testosterone, dehydroepiandrosterone (DHEA), dehydroepiandrosterone sulfate (DHEA-S), androstenedione, dihydrotestosterone (DHT), progesterone, cortisol, adrenocorticotropic hormone (ACTH), corticosterone, 11-dexoycorticosterone (11-DOC) and 11-deoxycortisol.
Based on the available data, the recommended dose for Phase 2 is about 1260 mg abiraterone decanoate once every three months (12 weeks). All cohorts 1 and 2 in this clinical study were treated with prednisone, 5 mg orally once or twice daily; and all cohorts 3-5 were treated with dexamethasone, 0.5 mg orally once daily. The results shown herein for these cohorts should be understood accordingly.
The median baseline T level, calculated from mean of screening and Day 1 of Cycle 1 pre-dose samples, was 7.45 ng/dL.

CCCCCCCCCC(=O)O[C@H]1CC[C@@]2(C)C(=CC[C@@H]3[C@@H]2CC[C@]2(C)C(c4cccnc4)=CC[C@@H]32)C1 [abiraterone decanoate]
Serum Testosterone (% CFB) (Cohort 1, 180 mg i.m., Study Day 1 (baseline)): 0%
Serum Testosterone (% CFB) (Cohort 1, 180 mg i.m., Study Day 2): −33%
Serum Testosterone (% CFB) (Cohort 1, 180 mg i.m., Study Day 3): −42%
Serum Testosterone (% CFB) (Cohort 1, 180 mg i.m., Study Day 5): −48%
Serum Testosterone (% CFB) (Cohort 1, 180 mg i.m., Study Day 7): −52%
Serum Testosterone (% CFB) (Cohort 1, 180 mg i.m., Study Day 10): −61%
Serum Testosterone (% CFB) (Cohort 1, 180 mg i.m., Study Day 14): −67%
Serum Testosterone (% CFB) (Cohort 1, 180 mg i.m., Study Day 21): −71%
Serum Testosterone (% CFB) (Cohort 1, 180 mg i.m., Study Day 28): −73%
Serum Testosterone (% CFB) (Cohort 1, 180 mg i.m., Study Day 42): −65%
Serum Testosterone (% CFB) (Cohort 1, 180 mg i.m., Study Day 56): −55%
Serum Testosterone (% CFB) (Cohort 1, 180 mg i.m., Study Day 70): −47%
Serum Testosterone (% CFB) (Cohort 2, 360 mg i.m., Study Day 1 (baseline)): 0%
Serum Testosterone (% CFB) (Cohort 2, 360 mg i.m., Study Day 2): −11%
Serum Testosterone (% CFB) (Cohort 2, 360 mg i.m., Study Day 3): 0%
Serum Testosterone (% CFB) (Cohort 2, 360 mg i.m., Study Day 5): −28%
Serum Testosterone (% CFB) (Cohort 2, 360 mg i.m., Study Day 7): −49%
Serum Testosterone (% CFB) (Cohort 2, 360 mg i.m., Study Day 10): −51%
Serum Testosterone (% CFB) (Cohort 2, 360 mg i.m., Study Day 14): −67%
Serum Testosterone (% CFB) (Cohort 2, 360 mg i.m., Study Day 21): −72%
Serum Testosterone (% CFB) (Cohort 2, 360 mg i.m., Study Day 28): −71%
Serum Testosterone (% CFB) (Cohort 2, 360 mg i.m., Study Day 42): −64%
Serum Testosterone (% CFB) (Cohort 2, 360 mg i.m., Study Day 56): −60%
Serum Testosterone (% CFB) (Cohort 2, 360 mg i.m., Study Day 70): −56%
Serum Testosterone (% CFB) (Cohort 2, 360 mg i.m., Study Day 77): −56%
Serum Testosterone (% CFB) (Cohort 2, 360 mg i.m., Study Day 84): −49%
Serum Testosterone (% CFB) (Cohort 2, 360 mg i.m., Study Day 112): −79%
Serum Testosterone (% CFB) (Cohort 2, 360 mg i.m., Study Day 140): −63%
Serum Testosterone (% CFB) (Cohort 2, 360 mg i.m., Study Day 168): −32%
Serum Testosterone (% CFB) (Cohort 2, 360 mg i.m., Study Day 196): −56%
Serum Testosterone (% CFB) (Cohort 3, 720 mg i.m., Study Day 1 (baseline)): 0%
Serum Testosterone (% CFB) (Cohort 3, 720 mg i.m., Study Day 2): −41%
Serum Testosterone (% CFB) (Cohort 3, 720 mg i.m., Study Day 3): −50%
Serum Testosterone (% CFB) (Cohort 3, 720 mg i.m., Study Day 5): −48%
Serum Testosterone (% CFB) (Cohort 3, 720 mg i.m., Study Day 7): −65%
Serum Testosterone (% CFB) (Cohort 3, 720 mg i.m., Study Day 10): −74%
Serum Testosterone (% CFB) (Cohort 3, 720 mg i.m., Study Day 14): −82%
Serum Testosterone (% CFB) (Cohort 3, 720 mg i.m., Study Day 21): −87%
Serum Testosterone (% CFB) (Cohort 3, 720 mg i.m., Study Day 28): −85%
Serum Testosterone (% CFB) (Cohort 3, 720 mg i.m., Study Day 42): −81%
Serum Testosterone (% CFB) (Cohort 3, 720 mg i.m., Study Day 56): −83%
Serum Testosterone (% CFB) (Cohort 3, 720 mg i.m., Study Day 70): −81%
Serum Testosterone (% CFB) (Cohort 3, 720 mg i.m., Study Day 77): −80%
Serum Testosterone (% CFB) (Cohort 3, 720 mg i.m., Study Day 84): −76%
Serum Testosterone (% CFB) (Cohort 3, 720 mg i.m., Study Day 112): −94%
Serum Testosterone (% CFB) (Cohort 3, 720 mg i.m., Study Day 140): −88%
Serum Testosterone (% CFB) (Cohort 3, 720 mg i.m., Study Day 168): −80%
Serum Testosterone (% CFB) (Cohort 3, 720 mg i.m., Study Day 196): −93%
Serum Testosterone (% CFB) (Cohort 4, 1260 mg i.m., Study Day 1 (baseline)): 0%
Serum Testosterone (% CFB) (Cohort 4, 1260 mg i.m., Study Day 2): −51%
Serum Testosterone (% CFB) (Cohort 4, 1260 mg i.m., Study Day 3): −65%
Serum Testosterone (% CFB) (Cohort 4, 1260 mg i.m., Study Day 5): −69%
Serum Testosterone (% CFB) (Cohort 4, 1260 mg i.m., Study Day 7): −79%
Serum Testosterone (% CFB) (Cohort 4, 1260 mg i.m., Study Day 10): −79%
Serum Testosterone (% CFB) (Cohort 4, 1260 mg i.m., Study Day 14): −80%
Serum Testosterone (% CFB) (Cohort 4, 1260 mg i.m., Study Day 21): −88%
Serum Testosterone (% CFB) (Cohort 4, 1260 mg i.m., Study Day 28): −89%
Serum Testosterone (% CFB) (Cohort 4, 1260 mg i.m., Study Day 42): −90%
Serum Testosterone (% CFB) (Cohort 4, 1260 mg i.m., Study Day 56): −89%
Serum Testosterone (% CFB) (Cohort 4, 1260 mg i.m., Study Day 70): −80%
Serum Testosterone (% CFB) (Cohort 4, 1260 mg i.m., Study Day 77): −87%
Serum Testosterone (% CFB) (Cohort 4, 1260 mg i.m., Study Day 84): −83%
Serum Testosterone (% CFB) (Cohort 4, 1260 mg i.m., Study Day 112): −93%
Serum Testosterone (% CFB) (Cohort 4, 1260 mg i.m., Study Day 140): −89%
Serum Testosterone (% CFB) (Cohort 4, 1260 mg i.m., Study Day 168): −86%
Serum Testosterone (% CFB) (Cohort 4, 1260 mg i.m., Study Day 196): −97%
Serum Testosterone (% CFB) (Cohort 5, 1800 mg i.m., Study Day 1 (baseline)): 0%
Serum Testosterone (% CFB) (Cohort 5, 1800 mg i.m., Study Day 2): −41%
Serum Testosterone (% CFB) (Cohort 5, 1800 mg i.m., Study Day 3): −46%
Serum Testosterone (% CFB) (Cohort 5, 1800 mg i.m., Study Day 5): −62%
Serum Testosterone (% CFB) (Cohort 5, 1800 mg i.m., Study Day 7): −76%
Serum Testosterone (% CFB) (Cohort 5, 1800 mg i.m., Study Day 10): −79%
Serum Testosterone (% CFB) (Cohort 5, 1800 mg i.m., Study Day 14): −85%
Serum Testosterone (% CFB) (Cohort 5, 1800 mg i.m., Study Day 21): −88%
Serum Testosterone (% CFB) (Cohort 5, 1800 mg i.m., Study Day 28): −88%
Serum Testosterone (% CFB) (Cohort 5, 1800 mg i.m., Study Day 42): −93%
Serum Testosterone (% CFB) (Cohort 5, 1800 mg i.m., Study Day 56): −79%
Serum Testosterone (% CFB) (Cohort 5, 1800 mg i.m., Study Day 70): −87%
Serum Testosterone (% CFB) (Cohort 5, 1800 mg i.m., Study Day 77): −88%
Serum Testosterone (% CFB) (Cohort 5, 1800 mg i.m., Study Day 84): −88%
Serum Testosterone (% CFB) (Cohort 5, 1800 mg i.m., Study Day 112): −83%
Serum Testosterone (% CFB) (Cohort 5, 1800 mg i.m., Study Day 140): −96%
Serum Testosterone (% CFB) (Cohort 5, 1800 mg i.m., Study Day 168): −95%
Serum Testosterone (% CFB) (Cohort 5, 1800 mg i.m., Study Day 196): −98%
decline in testosterone (Patient 1, cohort 1, 180 mg, treatment days 21-56): 59-61%
androgen suppression (Patient 2, cohort 2, 360 mg, progressed after Xtandi, FIG. 6): sustained androgen suppression
serum testosterone reduction from baseline (cohort 3 (720 mg)): 80%
serum testosterone reduction from baseline (cohort 4 (1260 mg)): 86%
serum testosterone reduction from baseline (cohort 5 (1800 mg)): up to 95%
patients with a 90% reduction in testosterone levels compared to baseline or values reduced to ≤1 ng/dL (patients dosed at 720 mg and above, day 28): 13 out of 16
